Measured values reported in patent publication US11168319B1, “Plant cell culture” (Inari Agriculture Technology, Inc., priority 2017, dated 2021).
Like-named read-outs stand apart in the source and are kept apart here.

How the values were obtained:
maize B73 protoplasts = conditions: for protoplast viability: 288 hours; for Viability (%): 1 mM GSH
Description: (§1) Separate suspensions of maize B73 and A188 protoplasts (2×10^5 cells per milliliter) were prepared in YPIM B-liquid medium containing various combinations of the added salts calcium chloride, potassium ascorbate, and magnesium chloride or magnesium sulfate. One-half milliliter aliquots of the suspensions were dispensed into a 24-well microtiter plate in the arrangement shown in Table 2, which lists the concentrations of calcium chloride (“Ca”), potassium ascorbate (“A”), and magnesium chloride (“MgCl2”) or magnesium sulfate (“MgSO4”) in millimolar values.
(§2) Viability was judged by Evans blue staining and visualization under a light microscope.
Separate suspensions of maize B73, winter wheat, soy, and strawberry protoplasts (2×10^5 cells per milliliter) were prepared in YPIM B-liquid medium containing calcium chloride at 0, 50, or 100 millimolar. One-half milliliter aliquots of the suspensions were dispensed into a 24-well microtiter plate.
Viability at day 8 of culture was judged by visualization under a light microscope.
Viability at day 13 was judged by Evans blue staining and visualization under a light microscope.
(§3) Separate suspensions of maize B73 protoplasts (2×10^5 cells per milliliter) were prepared in PIM B-liquid medium (identical to YPIM B-medium except with the 6-benzylaminopurine substituted with 0.022 milligrams/L thidiazuron) containing calcium chloride added at 0, 5, 20, 40, 70, or 100 millimolar. One-half milliliter aliquots of the suspensions were dispensed into a 24-well microtiter plate.
Viability was judged by visualization under a light microscope at day 7 and at day 14 of culture.
as §3, with “B73 and A188” for “B73”, “0” for “0, 5, 20, 40, 70,”, “50” for “100”
(§4) Viability was judged by visualization under a light microscope.
(§5) Separate suspensions of maize B73 and A188 protoplasts (2×10^5 cells per milliliter) were prepared in YPIM B-liquid medium containing (a) calcium chloride added at 100 millimolar, or (b) 1 millimolar glutathione, or (c) no added calcium or glutathione. One-milliliter aliquots of the suspensions were dispensed into a 24-well microtiter plate. At 16, 40, 64, and 136 hours of culture, 50-microliter samples were taken for hemocytometer analysis from each well; for the plates containing maize A188 protoplasts, parallel 50-microliter samples were taken from a replicate well at 16, 40, and 64 hours of culture for quantification using a Cellometer cell counter (Nexcelom Bioscience LLC, Lawrence, Mass.).
(§6) Viability was determined by Evans blue staining and quantification using a hemocytometer. Under conditions with high concentrations of calcium, Evans blue can create precipitates that interfere with cell counting; to prevent this, 5 microliters of an EDTA solution was added to the samples from the wells containing 100 millimolar calcium chloride immediately prior to staining.

maize A188 protoplasts = test: Protoplast viability (Evans blue staining / light microscope / hemocytometer); assay type: cell-based; conditions: for protoplast viability: 288 hours; for Viability (%): 1 mM GSH
Description: as §1, §2
Separate suspensions of maize A188 protoplasts (2×10^5 cells per milliliter) were prepared in YPIM B-liquid medium containing calcium chloride at 0 or 50 millimolar. One-half milliliter aliquots of the suspensions were dispensed into a 24-well microtiter plate.
as §4
as §3, with “B73 and A188” for “B73”, “0” for “0, 5, 20, 40, 70,”, “50” for “100”
as §5, §6

[1] = system: maize B73 and A188 protoplasts; test: Protoplast viability, statements pooled for both maize lines; assay type: cell-based; conditions: after 288 hours, various ascorbate concentrations (0.1-1 mM)
Description: as §1, §2
as §5, with “One-milliliter aliquots of the suspensions were dispensed into a 24-well microtiter plate.” left out
Viability was determined by Evans blue staining and quantification using a hemocytometer. […]

[2] = system: maize (Zea mays) alcohol dehydrogenase ADH1 gene; test: HDR/NHEJ editing of endogenous gene in maize protoplasts (PCR, KpnI/NdeI); assay type: cell-based; conditions: 0.5 mM GSH
Description: A ribonucleoprotein (RNP) was prepared with Cas9 nuclease (Aldevron, Fargo, N. Dak.) and a guide RNA complex designed to edit the first ADH1 exon, consisting of a crRNA (ZmADH1-B) with the sequence
Integrated DNA Technologies, Coralville, Iowa); the donor ssDNA contained three phosphorothioate linkages at each terminus (i.e., the three linkages between the most distal four bases on either end of the strand), and contained a KpnI restriction enzyme digestion site at nucleotide positions 67-72 (shown as underlined text). A double-stranded DNA (purchased from Integrated DNA Technologies, Coralville, Iowa) was designed with a forward strand having the sequence
wherein each strand was phosphorylated on the 5′ end and contained two phosphorothioate linkages at each terminus (i.e., the two linkages between the most distal three bases on either end of the strand); this contained an NdeI restriction site located at nucleotide positions 16-21 of the forward strand (SEQ ID NO:16), shown as underlined font. Insertion of this sequence into the first exon of the target gene ADH1 serves as a proxy readout for efficiency of the NHEJ pathway (i.e., non-homologous repair of the expected DSB).
(§7) Transfection procedures were essentially as described in Example 13. In a first experiment, cells were treated with the HDR ssDNA donor containing a Kpn1 restriction site, or with no donor polynucleotide. After transfection with the editing reagents, the washed and pelleted cells were then resuspended in PIM containing 50 millimolar CaCl2, and then plated in 6-well plates coated with 5% calf serum. The plates were sealed with Parafilm™ and allowed to incubate at 37 degrees Celsius for 1 hour. For the hypoxia treatment, the Parafilm™ was removed and the plates were then placed in a hypoxia chamber having about 5% oxygen by volume at 26 degrees Celsius in the dark. For normoxia treatment, the Parafilm™ was kept in place and the plates were incubated at 26 degrees Celsius in a growth chamber in the dark. Cells were harvested 48 hours and HDR editing efficacy was quantitated by PCR analysis using Phusion™ Flash PCR (Thermo Fisher Scientific, Waltham, Mass.).
as §7, with “In” for “Transfection procedures were essentially as described in Example 13. In”, “second” for “first”, “Kpn1 restriction site, or with the NHEJ dsDNA containing an NdeI” for “Kpn1”, “CaCl2, with or without 0.5 millimolar glutathione (GSH),” for “CaCl2,”, “subjected to” for “HDR editing efficacy was quantitated by”

maize B104 protoplasts = test: Cell division rate by EdU staining (% EdU); conditions: for EdU staining mean %: Ca^2+ 100 mM, glutathione 0.5 mM, 90 h
Description: Cell division rates are expressed as “% EdU” (percentage of cells displaying the EdU signal relative to the total cell count).
Cell division was monitored, e.g., by microscopic observations. […] Evidence of cell division was observed by microscopy and included increased cell or protoplast size, bulging membranes, and large groups of organelles occupying the separating daughter cells. Quantification of cell division was carried out using fluorescent staining. […] Cells that are the result of cellular division in the presence of EdU were identified by the resulting green fluorescent signal, which can be quantified by various means, e.g., with a microplate reader, cell counter, or cell sorter.
In a separate experiment, maize HiIIA protoplasts were grown in 24-well plates using YPIM B-liquid medium containing 100 millimolar Ca^2+ and 20 micromolar EdU. Identical plates were incubated under hypoxia (5% oxygen by volume, 26 degrees Celsius, 80% relative humidity) or ambient oxygen (21% oxygen by volume, 26 degrees Celsius, 80% relative humidity). Entire wells (250 microliters) were taken for EdU detection at four time points. The contents of each well was centrifuged and the pellet subjected to the Click-iT™ EdU Alexa Fluor™ 488 Imaging Kit (catalogue number C10337, Thermo Fisher Scientific, Waltham, Mass.) fluorescent labelling protocol. The labelled protoplasts were resuspended in YPIM B-medium and samples analyzed on a Nexcelom Cellometer (Nexcelom Bioscience LLC, Lawrence, Mass.). This assay was developed to detect the EdU signal from the nucleus of a cell resulting from cell division, as well as the fluorescent signal from chloroplasts as a measure of total cell count.
Entire wells (1000 microliters) were taken for EdU detection at three time points; analyses were of duplicate samples of each of two replicate wells.

[3] = 100 mM added salt, YPIM B- medium

With `O=S(=O)([O-])[O-].[Mg+2]` [magnesium sulfate] the protoplast viability (maize B73 protoplasts; 50 or 100 mM) was “only a modest improvement”, the protoplast viability (maize A188 protoplasts; 50 mM added salt, YPIM B- medium) was 30-40% and the protoplast viability (maize A188 protoplasts; 50 or 100 mM) was “only a modest improvement”.

In the case of `O=C1O[C@H]([C@@H](O)CO)C([O-])=C1O.[K+]` [potassium ascorbate], the protoplast viability (maize A188 protoplasts; 0.2 millimolar and above added to wells with added calcium) is reported as “slightly decrease viability” and the viability [1] is reported as “only slight effects”.

`[Cl-].[Cl-].[Mg+2]` [magnesium chloride] was tested, and the protoplast viability (maize B73 protoplasts; [3]) was “much higher viability than any well”, the protoplast viability (maize A188 protoplasts; [3]) was “about 70%” and the plant protoplast viability (plant protoplasts; about 40 millimolar or about 50 millimolar) was “Even higher levels of plant protoplast viability”. The protoplast viability (plant protoplasts; between or about 50 to about 100 millimolar, several titration experiments) was “greatest improvement in protoplast viability” and the plant protoplast viability (plant protoplasts; culture medium contains about 30 millimolar) was “Beneficial effects”.

`N[C@@H](CCC(=O)N[C@@H](CS)C(=O)NCC(=O)O)C(=O)O` [glutathione] was tested, and the “Viability (%)” value (maize B73 protoplasts; 0 hours, hemocytometer) was 90%, the “Viability (%)” value (maize B73 protoplasts; 16 hours) was 77% and the “Viability (%)” value (maize B73 protoplasts; 40 hours) was 72%. The “Viability (%)” value (maize B73 protoplasts; 64 hours) was 48%, the “Viability (%)” value (maize B73 protoplasts; 136 hours) was 24% and the “Viability (%)” value (maize A188 protoplasts; 0 hours, hemocytometer) was 90%. For the same compound, the “Viability (%)” value (maize A188 protoplasts; 16 hours) was 69%, the “Viability (%)” value (maize A188 protoplasts; 40 hours) was 50% and the “Viability (%)” value (maize A188 protoplasts; 64 hours) was 50%. The “Viability (%)” value (maize A188 protoplasts; 136 hours) was 42%, the “% KpnI (HDR)” value ([2]; editing reagents: Null) was 0.00% and the “% NdeI (NHEJ)” value ([2]; editing reagents: Null) was 0.00%. The “% KpnI (HDR)” value ([2]; editing reagents: RNP only) was 0.00%, the “% NdeI (NHEJ)” value ([2]; editing reagents: RNP only) was 0.00% and the “% KpnI (HDR)” value ([2]; editing reagents: RNP plus HDR donor) was 5.0%. For the same compound, the “% KpnI (HDR)” value ([2]; editing reagents: RNP plus HDR donor, listed as GSH) was 5.00%, the “% NdeI (NHEJ)” value ([2]; editing reagents: RNP plus NHEJ donor) was “about 15%” and the “% NdeI (NHEJ)” value ([2]; editing reagents: RNP plus NHEJ donor, listed as GSH) was 15.01%. For the same compound, the “EdU staining mean %” value (maize B104 protoplasts; O2 5%) was 18.4%, the “EdU staining mean %” value (maize B104 protoplasts; O2 21%) was 16.9% and the “change in rate of cell division (% EdU)” value (maize B104 protoplasts; addition of 0.5 millimolar glutathione, hypoxic conditions, 100 mM Ca^2+) was “little change”. For the same compound, the “increase in rate of cell division (% EdU)” value (maize B104 protoplasts; addition of 0.5 millimolar glutathione, normal atmospheric oxygen, 100 mM Ca^2+) was “about 2 fold”.
